Values quoted from earlier work, collected in patent US10981928B2, “Methods of making low odor choline salts of an organic compound” (HALO LIFE SCIENCE, LLC, priority 2016, dated 2021).
In brackets after ≈: the same amount, converted by molar mass.

Columns and labels:
[1] = comparison value
[2] = PEG 400 at 37° C.; comparison value

For `O=c1oc2c(O)c(O)cc3c(=O)oc4c(O)c(O)cc1c4c23` [ellagic acid], which solubility in water [1] is on record?
Its solubility in water is roughly 4 µg/mL (≈ 0.0132 mM).

What about the “solubility in PEG 400” value [2] of the same compound?
Its value is 8000 µg/mL (≈ 26.5 mM).
